Patent US11945807B2, “Splicing modulator antibody-drug conjugates and methods of use” (EISAI R&D MANAGEMENT CO., LTD., priority 2018, dated 2024)
Like-named read-outs stand apart in the source and are kept apart here.

Experiments:
[1] = Caco-2 permeability of ADC payload; format: in vitro ADME; conditions: human; for Papp B→A at 2 h, 10 NM: basolateral to apical, read-out: Permeability Mean Caco-2 B-A Perm (10e−G cm/s)
Procedure: (§1) Integrity of cell monolayer was confirmed by TEER (transepithelial electrical resistance) and Lucifer yellow. Payloads were spiked in duplicate at 10 NM, separately, on both sides of the cell monolayer. Permeability rates from the apical to basolateral (A-B) direction and the basolateral to apical (B-A) direction were determined by sampling aliquots from both chambers immediately after treatment (t=0) and following incubation for 2 hours. Samples were protein precipitated with organic solvent containing internal standard and analyzed by LC-MS/MS (SCIEX; API 5500). The area ratio responses of payload/internal standard over time in both directions were used to generate permeability (cm/sec) values.

THP1.1 = assay: Payload cell potency and lethality CTGlo 72 h, THP1.1; format: cell-based
[2] = Chemical stability of ADC payload, pH 5.5 buffer; format: physicochemical; conditions: for half-life at 20 μM: McIlvaine (citrate-phosphate) buffer, unconjugated payload, Citrate-Phosphate buffer pH 5.5, 37° C., read-out: Stability Mean Stability t1/2 pH5.5 (converted); for pH 5.5 Stability (t1/2, 37 C.): pH 5.5, 37 C., corresponding payload
Excerpt: (Eppendorf ThermoMixer). […] Time 0 was set to 100.

HCC1954 cells = assay: Cell viability CellTiter-Glo, HCC1954; conditions: for GI50: Homo sapiens, HCC1954, read-out: Payload GI50 (nM)
N87 cells = assay: Cell viability CellTiter-Glo, N87; format: cell-based, human; conditions: unconjugated payload of the ADC; for GI50: Homo sapiens
Procedure: (§2) HCC1954 (American Type Culture Collection (ATCC)) breast ductal carcinoma cells were plated at 2000 cells/well in flat bottom 96-well tissue culture plates (Corning) in a total volume of 90 μL tissue culture medium supplemented with 10% fetal bovine serum (ThermoFisher Scientific). Cells were treated with a 3-fold serial dilution of compound from 200 nM to 0.03 nM. Each concentration was tested in triplicate. At the time of treatment, a plate of untreated cells was evaluated using CellTiter-Glo®2.0 Luminescent Cell Viability Assay according to the manufacturers recommendations (Promega; #G9241). CellTiter-Glo® 2.0 reagent was added to the medium, incubated, and assayed on an EnVision Multilabel Reader (PerkinElmer). Values represent time zero (T0). […] Percentage growth inhibition was calculated as: [(T144−T0)/(C−T0)]×100 for concentrations for which T144>/=T0 or [(T144−T0)/T0]×100 for concentrations for which T144<T0. The dose response curve plots were generated using Prism 7 (Graphpad) and fit using nonlinear regression analysis and the log(inhibitor) versus response-variable slope (four parameters).
(§3) HCC1954 (ATCC), 2000 cells/well), N87 (ATCC, 4000 cells/well), SKBR3 (ATCC, 3000 cells/well), and MCF7 (ATCC, 1500 cells/well) cell lines were used.

MCF7 cells = assay: Cell viability CellTiter-Glo, MCF7 (HER2-negative); format: cell-based; conditions: Homo sapiens, unconjugated payload of the ADC
Procedure: as §2, §3

MOLP8 cells = assay: Cell viability CellTiter-Glo, MOLP8 (CD138-expressing); format: cell-based; conditions: for GI50: Homo sapiens, read-out: Payload GI50
Procedure: as §2
(§4) Anti-CD138 ADCs were tested in the CD138-expressing MOLP8 multiple myeloma cell line. Similarly, anti-EPHA2 ADCs were tested in the EPHA2-expressing PC3 prostate cancer cell line.

PC3 cells = assay: Cell viability CellTiter-Glo, PC3 (EPHA2-expressing); format: cell-based; conditions: for GI50: Homo sapiens, PC-3, free payload of the ADC; for Payload Rmin (%) / Payload LD50: free payload of the ADC
Procedure: as §2, §4

NCIH1568.1 = assay: Payload cellular potency CTGlo-ATS 72 h, NCIH1568.1; format: cell-based; conditions: cell line #2, 72 h, corresponding free payload
NCIH1650.1 = assay: Payload cellular potency CTGlo-ATS 72 h, NCIH1650.1; format: cell-based; conditions: cell line #1, 72 h, corresponding free payload
Caco-2 cells = assay: Caco-2 permeability of ADC payload; format: in vitro ADME
Procedure: as §1

[3] = Caco-2, unconjugated payload, apical to basolateral, 2 hours, read-out: Permeability Mean Caco-2 A-B Perm (10e−6 cm/s)
[4] = Caco-2, unconjugated payload, 2 hours
[5] = unconjugated payload, payload cell potency and lethality
[6] = unconjugated payload of the ADC
[7] = Caco-2, A-B, corresponding payload (Table 26), read-out: Permeability Caco-2 A-B (10e−6 cm/s)
[8] = unconjugated payload of the ADC, HCC1954 cells
[9] = MOLP-8, unconjugated payload of the ADC in the row

Row | SMILES | Papp A→B at 2 h, 10 NM [1, 3] [×10⁻⁶ cm/s] | Papp B→A at 2 h, 10 NM [1, 4] [×10⁻⁶ cm/s] | CTGlo-AT S Mean Min-Response % 72 h THP1.1 (THP1.1; unconjugated payload) [%] | half-life at 20 μM [2] [h] | GI50 (N87 cells) [nM] | Payload Rmin (%) (N87 cells) | GI50 (THP1.1; [5]) [nM] | GI50 (MCF7 cells) [nM] | GI50 (PC3 cells) [nM] | Payload Rmin (%) (PC3 cells) | Papp A→B at 2 h, 10 NM [1, 7] [×10⁻⁶ cm/s] | pH 5.5 Stability (t1/2, 37 C.) [2] | other results
1 | C/C(=C\c1cc(F)cc(N2CCN(C(=O)Cn3cccn3)CC2)c1)[C@H]1OC(=O)C[C@H](O)CC[C@H](C)[C@@H](OC(=O)N2CCN(C)CC2)/C=C/[C@@H]1C [D26] | 16 | 41.1 | −99.401 | > 168 | – | – | – | – | – | – | – | – | –
2 | CC[C@H](O)[C@@H](C)[C@H]1O[C@@H]1C[C@H](C)/C=C/C=C(\C)[C@H]1OC(=O)C[C@H](O)CC[C@@](C)(OC)[C@@H](OC(=O)N2CCNCC2)/C=C/[C@@H]1C [D18, (2S,3S,6S,7R,10R,E)-10-hydroxy-2-((S,2E,4E)-7-((2R,3R)-3-((2R,3S)-3-hydroxypentan-2-yl)oxiran-2-yl)-6-methylhepta-2,4-dien-2-yl)-7-methoxy-3,7-dimethyl-12-oxooxacyclododec-4-en-6-yl piperazine-1-carboxylate] | 1.19 | 27.4 | −99.621 | – | 0.275 | −92.127 | 0.863 | 0.883 | – | – | – | – | GI50 (HCC1954 cells): 0.208 nM
3 | CC(=O)N1CCC(n2nnc3c(F)cc(/C=C(\C)[C@H]4OC(=O)C[C@H](O)CC[C@H](C)[C@@H](OC(=O)N5CCNCC5)/C=C/[C@@H]4C)cc32)CC1 [D14] | 0.06 | 12.1 | −99.209 | > 168 | 2.92 | −52.662 | 3.584 | 5.29 | 3.88 | −79.835 | – | – | GI50 (MOLP8 cells; MOLP-8, unconjugated payload of the ADC): 1.9 nM; Payload LD50 (MOLP8 cells; [6]): 8.5 nM; Payload Rmin (%) (MOLP8 cells; [6]): −61%
4 | CC[C@H](O)[C@@H](C)[C@H]1O[C@@H]1C[C@H](C)/C=C/C=C(\C)[C@H]1OC(=O)C[C@H](O)CC[C@@](C)(OC(=O)N2CCNCC2)[C@@H](OC(C)=O)/C=C/[C@@H]1C [D13] | 0.9 | 17.2 | −99.941 | < 24 | – | – | 0.892 | – | – | – | – | – | –
5 | CC[C@H](O)[C@@H](C)[C@H]1O[C@@H]1C[C@@](C)(O)/C=C/C=C(\C)[C@H]1OC(=O)C[C@H](O)CC[C@@](C)(OC)[C@@H](OC(=O)N2CCNC(CCC(=O)O)C2)/C=C/[C@@H]1C (stereo partly drawn) [D22, N-ethyl-N-isopropylpropan-3-(4-((((2S,3S,6S,7R,10R,E)-10-hydroxy-2-((R,2E,4E)-6-hydroxy-7-((2R,3R)-3-((2R,3S)-3-hydroxypentan-2-yl)oxiran-2-yl)-6-methylhepta-2,4-dien-2-yl)-7-methoxy-3,7-dimethyl-12-oxooxacyclododec-4-en-6-yl)oxy)carbonyl)piperazin-2-yl)propanoic acid] | 0.14 | 0.16 | −78.119 | – | – | – | – | – | – | – | – | – | –
6 | C/C(=C\c1cc(F)cc(N2CCN(CC(=O)O)CC2)c1)[C@H]1OC(=O)C[C@H](O)CC[C@H](C)[C@@H](OC(=O)N2CCNCC2)/C=C/[C@@H]1C [D33, 2-(4-(3-fluoro-5-((E)-2-((2S,3S,6R,7S,10R,E)-10-hydroxy-3,7-dimethyl-12-oxo-6-((piperazine-1-carbonyl)oxy)oxacyclododec-4-en-2-yl)prop-1-en-1-yl)phenyl)piperazin-1-yl)acetic acid] | 0.13 | 0.53 | −53.128 | – | – | – | 195.752 | – | – | – | – | – | –
7 | CC[C@H](O)[C@@H](C)[C@H]1O[C@@H]1C[C@@](C)(O)/C=C/C=C(\C)[C@H]1OC(=O)C[C@H](O)CC[C@@](C)(O)[C@@H](OC(=O)N2CCN(C3CCCCCC3)CC2)/C=C/[C@@H]1C [D11, E7107] | 0.87 | 10.6 | −100.481 | 90 | – | – | – | – | – | – | – | – | –
8 | C/C(=C\c1cc(F)cc(N2CCN(C(=O)Cn3cccn3)CC2)c1)[C@H]1OC(=O)C[C@H](O)CC[C@H](C)[C@@H](OC(=O)N2CCNCC2)/C=C/[C@@H]1C [D16] | 0.72 | 23.3 | −99.681 | > 168 | – | – | 2.975 | – | – | – | 0.72 | 7 | –
9 | CC[C@H](O)[C@@H](C)[C@H]1O[C@@H]1C[C@@](C)(O)/C=C/C=C(\C)[C@H]1OC(=O)C[C@H](O)CC[C@@](C)(OC(=O)N2CCNCC2)[C@@H](OC(C)=O)/C=C/[C@@H]1C [D8, (2S,3S,6S,7R,10R,E)-6-acetoxy-10-hydroxy-2-((R,2E,4E)-6-hydroxy-7-((2R,3R)-3-((2R,3S)-3-hydroxypentan-2-yl)oxiran-2-yl)-6-methylhepta-2,4-dien-2-yl)-3,7-dimethyl-12-oxooxacyclododec-4-en-7-yl piperazine-1-carboxylate] | 0.128 | 2.03 | −99.92 | 84.6 | 8.84 | −34.052 | – | 29.6 | 16.6 | −68.37 | – | – | GI50 (HCC1954 cells): 2.64 nM; CTGlo-ATS GMean LD50 (nM) 72 h NCIH1568.1 (NCIH1568.1): 68.125 nM; GI50 (NCIH1568.1; read-out: CTGlo-ATS GMean GI50 (nM) 72 h NCIH1568.1): 6.57 nM; CTGlo-ATS GMean LD50 (nM) 72 h NCIH1650.1 (NCIH1650.1): >10000.00 nM; GI50 (NCIH1650.1; read-out: CTGlo-ATS GMean GI50 (nM) 72 h NCIH1650.1): 19.1 nM; Perm. Mean Caco 2 A-B Perm (10e−6 cm/s) (Caco-2 cells; A-B, corresponding free payload): 0.128 10e−6 cm/s; Perm. Mean Caco 2 B-A Perm (10e−6 cm/s) (Caco-2 cells; B-A, corresponding free payload): 2.027 10e−6 cm/s; GI50 (THP1.1; read-out: CTGlo-ATS GMean GI50 (nM) 72 h THP1.1, cell line #3, 72 h, corresponding free payload): 8.74 nM
10 | CC[C@H](O)[C@@H](C)[C@H]1O[C@@H]1C[C@@](C)(O)/C=C/C=C(\C)[C@H]1OC(=O)C[C@H](O)CC[C@@](C)(OC)[C@@H](OC(=O)N(C)CCNC)/C=C/[C@@H]1C [D20, (2S,3S,6S,7R,10R,E)-10-hydroxy-2-((R,2E,4E)-6-hydroxy-7-((2R,3R)-3-((2R,3S)-3-hydroxypentan-2-yl)oxiran-2-yl)-6-methylhepta-2,4-dien-2-yl)-7-methoxy-3,7-dimethyl-12-oxooxacyclododec-4-en-6-yl methyl(2-(methylamino)ethyl)carbamate] | 0.16 | 0.38 | −100.664 | > 168 | – | – | 28.336 | – | – | – | – | – | –
11 | CC(=O)N1CCC(n2nnc3c(F)cc(/C=C(\C)[C@H]4OC(=O)C[C@H](O)CC[C@H](C)[C@@H](OC(=O)N5CCN(C)CC5)/C=C/[C@@H]4C)cc32)CC1 [D15] | 3.43 | 26.9 | −99.595 | > 168 | 0.41 | −68.045 | – | 0.961 | 3.88 | −79.835 | 3.4 | 7 | GI50 (HCC1954 cells): 0.358 nM; Payload LD50 (HCC1954 cells; [8]): 2.037 nM; Payload Rmin (%) (HCC1954 cells; [8]): −84.412%; Payload LD50 (N87 cells): >200 nM; GI50 (MOLP8 cells; [9]): 0.776 nM
12 | CC[C@H](O)[C@@H](C)[C@H]1O[C@@H]1C[C@H](C)/C=C/C=C(\C)[C@H]1OC(=O)C[C@H](O)CC[C@@](C)(OC)[C@@H](OC(=O)N2CCN(C)CC2)/C=C/[C@@H]1C [D19, (2S,3S,6S,7R,10R,E)-10-hydroxy-2-((S,2E,4E)-7-((2R,3R)-3-((2R,3S)-3-hydroxypentan-2-yl)oxiran-2-yl)-6-methylhepta-2,4-dien-2-yl)-7-methoxy-3,7-dimethyl-12-oxooxacyclododec-4-en-6-yl 4-methylpiperazine-1-carboxylate] | – | – | – | – | – | – | – | – | 1.41 | −29.33 | 16 | 0.8 | GI50 (MOLP8 cells; [9]): 0.84 nM; Payload LD50 (PC3 cells): >400 nM
13 | CC[C@H](O)[C@@H](C)[C@H]1O[C@@H]1C[C@@](C)(O)/C=C/C=C(\C)[C@H]1OC(=O)C[C@H](O)CC[C@@](C)(OC)[C@@H](OC(=O)N2CCN(CCCC(=O)O)CC2)/C=C/[C@@H]1C [D25] | 0.137 | 0.349 | −77.246 | 120 | > 200 | 40.364 | 348.114 | > 200 | > 400 | 77.524 | 0.14 | 3.4 | GI50 (HCC1954 cells): 168 nM; payload permeability (in words) (Caco-2 cells): poorly permeable; GI50 (MOLP8 cells; [9]): 150 nM; Payload LD50 (MOLP8 cells; [6]): >400 nM; Payload LD50 (PC3 cells): >400 nM
14 | C/C(=C\c1cccc(S(=O)(=O)N2CCCC2)c1)[C@H]1OC(=O)C[C@H](O)CC[C@H](C)[C@@H](OC(=O)N2CCN(C)CC2)/C=C/[C@@H]1C [D34] | – | – | – | – | – | – | – | – | – | – | 26 | 7 | –
